Experimental data taken from patent publication US6399377B1, “Use of anti-sense sequences to increase responsiveness to gene amplification” (priority 1999, dated 2002).

System: SBP13-30 CHO cells
Experiment: Acquired sensitivity to MTX of plasmid-transfected cells, crystal violet staining
Assay type: cell-based, chinese hamster
Conditions: 9 μM MTX, 0 μg DNA (non-transfected cells)
Procedure: In order to assess the level of expression of the anti-sense DHFR sequence and whether its expression effectively blocks DHFR+ expression i.e. renders the cells more responsive/sensitive to MTX treatment, SBP13-30 CHO cells subjected to transfections with three different plasmid concentrations of adHFR2/Neo 0 (control), 100 and 500 μg plasmid DNA, were grown in the absence (controls) or in the presence of MTX (9 μM). Equal amounts of cells from each of the transfections were plated onto duplicate sets of Petri dishes containing standard CHO culture medium, one set receiving cells treated with MTX and the other set receiving untreated cells. When the cells in the dishes without MTX approached confluent growth, the experiment was terminated and the surviving cells were visualized by staining with crystal violet.
As expected, with 0 μM MTX, heavy staining was observed. The staining was moderate-to-heavy in the 9 μM MTX/0 μg DNA dish. […] Cells transfected with high amounts of plasmid (500 μg plasmid DNA/dish) are more sensitive to MTX than cells transfected with lower amounts of plasmid (100 μg plasmid DNA/dish) or the non-transfected control cells (0 μg plasmid/dish). Thus, it is clear that the anti-sense DHFR plasmid successfully transfected the CHO cells and was expressed in these cells. […] In other words, the greater the DHFR^+ inhibition, the greater the MTX toxicity.

CN(Cc1cnc2nc(N)nc(N)c2n1)c1ccc(C(=O)N[C@@H](CCC(=O)O)C(=O)O)cc1 [MTX, methotrexate]
crystal violet staining of surviving cells: moderate-to-heavy
